pIC50: −log10 of the molar value. Activity calls are given as the source filed them. The calls are words filed in the database; no cut-off is given here.

The nature of series [1]: Binding affinity to Pradimicin A assessed as suppression of pradimicin A induced growth inhibition of Candida rugosa AJ14513 by measuring minimum antagonistic concentration measured after 48 hrs by visual analysis.
Series [2] in a line: Induction of Pradimicin-FA1 aggregation assessed as concentration required to induce 50% aggregation incubated for 15 mins and further incubated for 30 mins at room temperature by RP-HPLC analysis.
Series [3] can be described thus: Binding affinity to Pradimicin A assessed as pradimicin A/Ca2+/compound ternary complex formation by measuring molar ratio at 50 umol incubated at 60 degreeC for 15 mins and room temperature for 1 hr in presence of CaCl2 and further incubated at 4 degreeC for 1 hr by coprecipitation based 1H-NMR analysis. As to conditions: dose 50.0 µmol, time 2.25 hrs.
The next series has as its system Diutina rugosa. The series is described as follows: Antifungal activity against Candida rugosa AJ14513 assessed as inhibition of fungal growth at 32 ug/ml measured after 48 hrs by visual analysis relative to control. The series is classed as functional.
Series [4] has as its system SARS-CoV-2. Briefly: Antiviral activity against SARS-CoV-2 JPN/NGS/SC-1/2020 infected in human Calu-3 cells assessed as inhibition of viral infection at 6.25 uM pretreated with cells for 1 hr in presence of (2S,3S,4S,5R,6R)-4-(((2S,3R,4S,5S,6R)-3,4,5-trihydroxy-6-(hydroxymethyl)tetrahydro-2H-pyran-2-yl)oxy)-6-((((2S,3S,4S,5S,6R)-3,4,5-trihydroxy-6-(hydroxymethyl)tetrahydro-2H-pyran-2-yl)oxy)methyl)tetrahydro-2H-pyran-2,3,5-triol followed by viral infection and measured after 3 days by immunofluorescence analysis. As to conditions: Severe acute respiratory syndrome coronavirus 2, time 73.0 hrs. It is filed as functional, organism-based.

The subject of series [5] is SARS-CoV-2. The series is described as follows: Antiviral activity against SARS-CoV-2 JPN/NGS/SC-1/2020 infected in human Calu-3 cells assessed as inhibition of viral infection pretreated with cells for 1 hr followed by viral infection and measured after 3 days by immunofluorescence analysis. The series is classed as functional, organism-based. Conditions: Severe acute respiratory syndrome coronavirus 2, JPN/NGS/SC-1/2020, Calu-3.

For series [6], the system named is SARS-CoV-2. The series is described as follows: Antiviral activity against SARS-CoV-2 JPN/NGS/SC-1/2020 infected in human Calu-3 cells assessed as inhibition of viral infection at 6.25 uM pretreated with cells for 1 hr followed by viral infection and measured after 3 days by immunofluorescence analysis relative to control. The series is classed as functional, Severe acute respiratory syndrome coronavirus 2. On the set-up: scale not given: the % may be the effect or the level left. Conditions: time 73 hrs.

Another series concerns Calu-3. The series is described as follows: Cytotoxicity against human Calu-3 cells infected with SARS-CoV-2 JPN/NGS/SC-1/2020 assessed as reduction in cell viability at 0.3 to 100 uM pretreated with cells for 1 hr followed by viral infection and measured after 3 days. The series is classed as toxicity, cell-based. Conditions: calu-3, 73 h, dose 0.3-100 µM.

As to `CO[C@H]1O[C@H](CO[C@H]2O[C@H](CO)[C@@H](O)[C@H](O)[C@H]2O)[C@@H](O)[C@H](O[C@@H]2O[C@H](CO)[C@@H](O)[C@H](O)[C@H]2O)[C@@H]1O`, in series [1], the MAC amounted to 16 mM. Besides, the concentration at half-maximal activity (AC50) (commonly the midpoint of the concentration-response curve, whichever way the signal moves) in series [2] was more than 10 mM.
Take `CO[C@H]1O[C@H](CO)[C@@H](O)[C@H](O)[C@H]1O`: the Ratio in series [3] was determined as 0.05.
Regarding `CO[C@H]1O[C@H](CO)[C@@H](O[C@@H]2O[C@H](CO)[C@H](O)[C@H](O)[C@H]2O)[C@H](O)[C@@H]1NC(C)=O`, the MAC in series [1] is more than 64 mM. The AC50 in series [2] is more than 10 mM.
With `CO[C@H]1O[C@H](CO[C@H]2O[C@H](CO)[C@@H](O)[C@H](O)[C@@H]2OC)[C@@H](O)[C@H](O[C@@H]2O[C@H](CO)[C@@H](O)[C@H](O)[C@H]2OC)[C@@H]1O`, the MAC in series [1] is more than 64 mM. The AC50 in series [2] is more than 10 mM.
As for `CO[C@H]1O[C@H](CO[C@H]2O[C@H](CO)[C@@H](O)[C@H](O)[C@@H]2O[C@H]2O[C@H](CO)[C@@H](O)[C@H](O)[C@@H]2O)[C@@H](O)[C@H](O[C@H]2O[C@H](CO)[C@H](O)[C@@H](O)[C@@H]2O[C@@H]2O[C@H](CO)[C@@H](O)[C@H](O)[C@H]2O)[C@@H]1O`, in series [1], the MAC was 1 mM. Also, the AC50 in series [2] turned out to be 0.07 mM.
Consider `OC[C@H]1O[C@H](OC[C@H]2O[C@H](O)[C@@H](O)[C@@H](O[C@@H]3O[C@H](CO)[C@@H](O)[C@H](O)[C@H]3O)[C@@H]2O)[C@@H](O)[C@@H](O)[C@@H]1O`, for which the MAC in series [1] is 1 mM. Moreover, in series [2], the AC50 was found to be 0.06 mM. For the same molecule, in series [3], the Ratio was determined as 0.52.
Regarding `CO[C@H]1O[C@H](CO)[C@@H](O)[C@H](O)[C@@H]1O[C@@H]1O[C@H](CO)[C@@H](OC)[C@H](O)[C@@H]1NC(C)=O`, in series [1], the MAC was more than 64 mM. Also, in series [2], the AC50 was more than 10 mM.
`CO[C@H]1O[C@H](CO[C@H]2O[C@H](CO)[C@@H](O)[C@H](O)[C@@H]2O)[C@@H](O)[C@H](O[C@@H]2O[C@H](CO)[C@@H](O)[C@H](O)[C@H]2O)[C@@H]1O`: the MAC in series [1] amounted to 16 mM. In addition, the AC50 in series [2] was more than 10 mM.
On to `CO[C@@H]1O[C@H](CO[C@]2(C(=O)O)C[C@H](O)[C@@H](NC(C)=O)[C@H]([C@@H](O)[C@H](O)CO)O2)[C@H](O)[C@H](O)[C@H]1O`, for which the MAC in series [1] is more than 64 mM. The AC50 in series [2] was more than 10 mM.
On to `CO[C@H]1O[C@H](CO)[C@@H](O)[C@H](O)[C@@H]1O`, for which, in series [1], the MAC stood at 16 mM. In addition, in series [2], the AC50 is 5 mM. Also, in series [3], the Ratio was determined as 0.96.
Turning to `CO[C@H]1O[C@H](CO)[C@@H](O)[C@H](O)[C@@H]1O[C@@H]1O[C@H](CO)[C@@H](O)[C@H](O)[C@@H]1NC(C)=O`, in series [1], the MAC was more than 64 mM. Also, in series [2], the AC50 is more than 10 mM.
The matching figures for `CO[C@H]1O[C@H](CO)[C@@H](O)[C@H](O)[C@@H]1O[C@H]1O[C@H](CO)[C@@H](O)[C@H](O)[C@@H]1O`: 16 mM and more than 10 mM.
Consider `CO[C@H]1O[C@H](CO)[C@@H](O[C@@H]2O[C@H](CO)[C@H](OC)[C@H](O)[C@H]2NC(C)=O)[C@H](O)[C@@H]1NC(C)=O`, for which, in series [1], the MAC is more than 64 mM. Besides, the AC50 in series [2] is more than 10 mM.
Regarding `CN[C@@H]1[C@H](O[C@@H]2OC[C@@H](O)[C@H](O)[C@H]2O)[C@@H](O)[C@H](O[C@H]2c3cc(C)c(C(=O)N[C@H](C)C(=O)O)c(O)c3-c3c(cc4c(c3O)C(=O)c3cc(OC)cc(O)c3C4=O)[C@@H]2O)O[C@@H]1C` [PRADIMICIN A], in the series on Diutina rugosa, the inhibition (commonly the percentage by which the read-out fell short of the control) at 32 µg/mL is 100%. Also, in the series on SARS-CoV-2 [4], the result was inactive. For the same molecule, the pIC50 (usually the negative decadic logarithm of the IC50, by convention in mol/L) in the series on SARS-CoV-2 [5] is 5.92. In addition, the Activity in the series with SARS-CoV-2 [6] is approximately 100%; in the series with Calu-3, “Non-Toxic”.

These data come from ChEMBL document CHEMBL5550125, “Molecular basis of N-glycan recognition by pradimicin a and its potential as a SARS-CoV-2 entry inhibitor” (Bioorg Med Chem, 2024).
